Patent US20260042764A1, “COMPOSITIONS AND METHODS FOR INHIBITION OF KRAS” (TheRas, Inc., priority 2022, published 2026)

Columns and labels:
[1] = molecular target: T1, Avi-KRAS G12D (1-169) GppNHp/RAF1 RBD-3xFLAG (52-151) (Homo sapiens, UniProt P01116, G12D); assay: Raf1-KRAS G12D-GppNHP disruption HTRF assay (Biological Example 1); type: binding
T1 construct: Avi-KRAS G12D (1-169)
How it was run: (§1)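 Compounds were tested for disruption of KRAS–RAF1 RBD binding by HTRF in 50 mM Tris pH 7.5, 100 mM NaCl, 5 mM MgCl2, 0.1% BSA, 0.01% Tween, 10% DMSO. Protein mix was incubated 1 h at room temperature with shaking, then detection reagents added for another 1 h. Activity expressed as percent of DMSO control.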

[2] = molecular target: T2, Avi-KRAS G12R (1-169) GppNHp/RAF1 RBD-3xFLAG (52-151) (Homo sapiens, UniProt P01116, G12R); assay: Raf1-KRAS G12R-GppNHP disruption HTRF assay (Biological Example 1); type: binding
T2 construct: Avi-KRAS G12R (1-169)
How it was run: as §1

[3] = molecular target: T3, Avi-KRAS G12V (1-169) GppNHp/RAF1 RBD-3xFLAG (52-151) (Homo sapiens, UniProt P01116, G12V); assay: Raf1-KRAS G12V-GppNHP disruption HTRF assay (Biological Example 1); type: binding
T3 construct: Avi-KRAS G12V (1-169)
How it was run: as §1

[4] = molecular target: T4, Avi-KRAS WT (1-169) GppNHp/RAF1 RBD-3xFLAG (52-151) (Homo sapiens, UniProt P01116); assay: Raf1-KRAS WT-GppNHP disruption HTRF assay (Biological Example 1); type: binding
T4 construct: Avi-KRAS WT (1-169)
How it was run: as §1

GP2d cells (KRAS G12D) = assay: Cell-based pERK HTRF assay in GP2d cell (Biological Example 2); settings: GP2d, GP2d (KRAS G12D) cells, pERK HTRF
How it was run: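 GP2d (KRAS G12D) cells were plated in DMEM/10% FBS and treated the next day for 60 min with compounds. Dosing used 9-point half-log series starting at 1 μM or 100 nM in 0.25% DMSO. Lysates were read by HTRF pERK (d2/Eu cryptate antibodies) after 4–24 h at room temperature, with excitation at 320 nm and emission at 615 nm.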

SW620 cells (KRAS G12V) = assay: Cell-based pERK HTRF assay in SW620 cell (Biological Example 4); settings: Homo sapiens, SW-620, SW620 (KRAS G12V) cells, pERK HTRF
How it was run: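 This assay measures inhibition of ERK phosphorylation downstream of KRAS G12V in intact SW620 cells. Compounds are applied for 4 h over nine half-log concentrations starting at 1 μM, and pERK is quantified by HTRF.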

[5] = KRAS G12D, GppNHp-loaded, class symbols
[6] = KRAS G12R, GppNHp-loaded, class symbols
[7] = KRAS G12V, GppNHp-loaded, class symbols
[8] = KRAS WT, GppNHp-loaded, class symbols

T4 sequence (P01116 1-169 isoform P01116-2): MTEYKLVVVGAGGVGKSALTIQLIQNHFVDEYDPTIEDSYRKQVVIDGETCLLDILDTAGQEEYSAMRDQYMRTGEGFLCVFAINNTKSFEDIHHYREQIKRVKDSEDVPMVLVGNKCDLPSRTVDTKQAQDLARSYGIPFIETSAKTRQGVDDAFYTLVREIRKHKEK
T3 sequence (P01116 1-169 isoform P01116-2 G12V): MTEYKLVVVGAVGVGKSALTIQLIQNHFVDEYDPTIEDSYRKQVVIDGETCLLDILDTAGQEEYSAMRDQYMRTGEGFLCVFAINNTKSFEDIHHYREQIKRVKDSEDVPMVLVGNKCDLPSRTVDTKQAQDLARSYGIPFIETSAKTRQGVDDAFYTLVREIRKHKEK
T1 sequence (P01116 1-169 isoform P01116-2 G12D): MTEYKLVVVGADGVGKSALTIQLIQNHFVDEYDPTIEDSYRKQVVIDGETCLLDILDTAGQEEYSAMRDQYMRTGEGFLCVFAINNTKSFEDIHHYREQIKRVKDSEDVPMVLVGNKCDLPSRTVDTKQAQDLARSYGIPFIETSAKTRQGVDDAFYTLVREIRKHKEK
T2 sequence (P01116 1-169 isoform P01116-2 G12R): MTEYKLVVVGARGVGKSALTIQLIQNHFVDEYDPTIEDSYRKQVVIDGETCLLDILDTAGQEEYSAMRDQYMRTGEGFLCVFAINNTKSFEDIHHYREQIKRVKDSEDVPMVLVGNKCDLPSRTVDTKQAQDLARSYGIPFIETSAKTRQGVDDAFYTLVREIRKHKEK

SMILES	IC50 ([1]; KRAS G12D-GppNHp/RAF1 RBD HTRF)	IC50 ([2]; KRAS G12R-GppNHp/RAF1 RBD HTRF)	IC50 ([3]; KRAS G12V-GppNHp/RAF1 RBD HTRF)	IC50 ([4]; KRAS WT-GppNHp/RAF1 RBD HTRF)	IC50 (GP2d cells (KRAS G12D))	IC50 (SW620 cells (KRAS G12V))	IC50 [1, 5]	IC50 [2, 6]	IC50 [3, 7]	IC50 [4, 8]	IC50 (GP2d cells (KRAS G12D); class symbols)	IC50 (SW620 cells (KRAS G12V); class symbols)	IC50 ([1]; KRAS G12D, GppNHp-loaded, Table 11)	IC50 ([2]; KRAS G12R, GppNHp-loaded, Table 11)	IC50 ([3]; KRAS G12V, GppNHp-loaded, Table 11)	IC50 ([4]; KRAS WT, GppNHp-loaded, Table 11)
[2H]C1([2H])CN2C[C@H](F)C[C@]2(COc2nc(N(CC)[C@H]3CCN(C(=O)C(C)C)C3)c3cc(C(F)(F)F)c(-c4ccc(F)c5sc(N)c(C#N)c45)c(F)c3n2)C1 [Compound 565]	< 0.1 µM	< 0.1 µM	0.1 to 1 µM	0.1 to 1 µM	< 0.1 µM	< 0.1 µM	–	–	–	–	–	–	–	–	–	–
CCN(c1nc(OC[C@@]23CCCN2C[C@H](F)C3)nc2c(F)c(-c3ccc(F)c4sc(N)c(C#N)c34)c(C(F)(F)F)cc12)[C@H]1CCN(C(=O)c2cc(C)no2)C1 (atropisomer, axis not shown) [Compound 771]	–	–	–	–	–	–	< 0.1 µM	< 0.1 µM	< 0.1 µM	< 0.1 µM	< 0.1 µM	< 0.1 µM	–	–	–	–
CCN(c1nc(OC[C@@]23CCCN2C[C@H](F)C3)nc2c(F)c(-c3ccc(F)c4sc(N)c(C#N)c34)c(C(F)(F)F)cc12)[C@H]1CCN(C(=O)OCCF)C1 (atropisomer, axis not shown) [Compound 687]	–	–	–	–	–	–	< 0.1 µM	< 0.1 µM	< 0.1 µM	< 0.1 µM	< 0.1 µM	< 0.1 µM	–	–	–	–
CCN(c1nc(OC[C@@]23CCCN2C[C@H](F)C3)nc2c(F)c(-c3ccc(F)c4sc(N)c(C#N)c34)c(C(F)(F)F)cc12)[C@H]1CCN(C(=O)[C@H]2C[C@H]2F)C1 (atropisomer, axis not shown) [Compound 750]	–	–	–	–	–	–	< 0.1 µM	< 0.1 µM	< 0.1 µM	< 0.1 µM	< 0.1 µM	< 0.1 µM	–	–	–	–
CN(C)C(=O)c1nn2c(c1C(F)(F)F)CN(c1nc(OC[C@@]34CCCN3C[C@H](F)C4)nc3c(F)c(-c4ccc(F)c5sc(N)c(C#N)c45)c(C(F)(F)F)cc13)CC2 (atropisomer, axis not shown) [Compound 596]	–	–	–	–	–	–	< 0.1 µM	0.1 to 1 µM	0.1 to 1 µM	0.1 to 1 µM	< 0.1 µM	< 0.1 µM	–	–	–	–
CN(Cc1cccnc1)c1nc(OC[C@@]23CCCN2C[C@H](F)C3)nc2c(F)c(-c3ccc(F)c4sc(N)c(C#N)c34)c(C(F)(F)F)cc12 (atropisomer, axis not shown) [Compound 698]	–	–	–	–	–	–	0.1 to 1 µM	0.1 to 1 µM	0.1 to 1 µM	0.1 to 1 µM	< 0.1 µM	< 0.1 µM	–	–	–	–

Next, values leading:

IC50 ([1]; KRAS G12D-GppNHp/RAF1 RBD HTRF)	IC50 ([2]; KRAS G12R-GppNHp/RAF1 RBD HTRF)	IC50 ([3]; KRAS G12V-GppNHp/RAF1 RBD HTRF)	IC50 ([4]; KRAS WT-GppNHp/RAF1 RBD HTRF)	IC50 (GP2d cells (KRAS G12D))	IC50 (SW620 cells (KRAS G12V))	IC50 [1, 5]	IC50 [2, 6]	IC50 [3, 7]	IC50 [4, 8]	IC50 (GP2d cells (KRAS G12D); class symbols)	IC50 (SW620 cells (KRAS G12V); class symbols)	IC50 ([1]; KRAS G12D, GppNHp-loaded, Table 11)	IC50 ([2]; KRAS G12R, GppNHp-loaded, Table 11)	IC50 ([3]; KRAS G12V, GppNHp-loaded, Table 11)	IC50 ([4]; KRAS WT, GppNHp-loaded, Table 11)	SMILES
0.1 to 1 µM	0.1 to 1 µM	0.1 to 1 µM	0.1 to 1 µM	< 0.1 µM	< 0.1 µM	–	–	–	–	–	–	–	–	–	–	N#Cc1c(N)sc2c(F)ccc(-c3c(C(F)(F)F)cc4c(N5C[C@@H]6CC[C@H]5CN6C(=O)C5CC5)nc(OC[C@@]56CCCN5C[C@H](F)C6)nc4c3F)c12 [Compound 456]
–	–	–	–	–	–	0.1 to 1 µM	0.1 to 1 µM	0.1 to 1 µM	0.1 to 1 µM	< 0.1 µM	< 0.1 µM	–	–	–	–	C/C=C/C(=O)N1CC[C@@H](N(C)c2nc(OC[C@@]34CCCN3C[C@H](F)C4)nc3c(F)c(-c4ccc(F)c5sc(N)c(C#N)c45)c(C(F)(F)F)cc23)[C@H]1C [Compound 670]
–	–	–	–	–	–	1 to 10 µM	1 to 10 µM	1 to 10 µM	1 to 10 µM	0.1 to 1 µM	0.1 to 1 µM	–	–	–	–	N#Cc1c(N)sc2c(F)ccc(-c3c(C(F)(F)F)cc4c(N5C[C@H]6[C@@H]5CCN6C(=O)C5CC5)nc(OC[C@@]56CCCN5C[C@H](F)C6)nc4c3F)c12 (atropisomer, axis not shown) [Compound 643]
0.1 to 1 µM	0.1 to 1 µM	1 to 10 µM	0.1 to 1 µM	< 0.1 µM	< 0.1 µM	–	–	–	–	–	–	–	–	–	–	N#Cc1c(N)sc2c(F)ccc(-c3c(C(F)(F)F)cc4c(N5CC6COC(C6)C5)nc(OC[C@@]56CCCN5C[C@H](F)C6)nc4c3F)c12 (stereo partly drawn) [Compound 292]
–	–	–	–	< 0.1 µM	< 0.1 µM	–	–	–	–	–	–	0.1 to 1 µM	1 to 10 µM	1 to 10 µM	0.1 to 1 µM	CC(=O)N1CCN(c2nc(OC[C@@]34CCCN3C[C@H](F)C4)nc3c(F)c(-c4ccc(F)c5sc(N)c(C#N)c45)c(C(F)(F)F)cc23)[C@@H](C)C1 [Compound 230]
